This data set concerns the target T1, CYP2C19 (Homo sapiens, UniProt P33261).
T1 construct: tissue Corning or Xenotech; host or cells: human liver microsomes
Briefly: CYP450 inhibition in human liver microsomes, CYP2C19. The following applies: pH 7.4, read-out: % CYP inhibition @ 10 µM 2C19. The class given is in vitro ADME. The source says: According to standard methods in the field for the study of cytochrome P450 enzyme systems, such as the method described in Kerns, Edward H. and Di Li et al., Drug-like Properties: Concepts, Structure Design and Methods: from ADME to Toxicity Optimization (2008), San Diego, Academic Press, and Lin, Tong et al., In Vitro Assessment of Cytochrome P450 Inhibition: Strategies for Increasing LC/MS-Based Assay Throughput Using a One-Point IC50 Method and Multiplexing High-Performance Liquid Chromatography (J. Pharm. Sci. 2007, 96 (9), 2485). The inhibitory effect of the disclosed compounds on the cytochrome P450 enzyme system was similarly examined below.
Human liver microsomes were purchased from Corning or Xenotech. The test compounds were evaluated by detecting the metabolism of substrates for different Cyp450 isoforms by human liver microsomes.
0.1 M potassium phosphate buffer (K-buffer, pH 7.4) was pre-warmed.
100 mM K-buffer was prepared by mixing 9.5 mL of stock solution A (1 M potassium dihydrogen phosphate, prepared by dissolving 136.5 g of potassium dihydrogen phosphate in 1 L of Milli-Q water) with 40.5 mL of stock solution B (1 M potassium hydrogen phosphate, prepared by dissolving 174.2 g of potassium hydrogen phosphate in 1 L of Milli-Q water). The total volume was adjusted to 500 mL with Milli-Q water, and the buffer was titrated to pH 7.4 using KOH or H3PO4.
Test compound solution and specific inhibitor solution (400× dilution) were prepared in a 96-well plate. For the test compound, 8 µL of 10 mM test compound was transferred into 12 µL of ACN. For specific inhibitors of CYP1A2, CYP2C9, and CYP2D6: 12 µL of 1 mM α-naphthoflavone, 10 µL of 40 mM sulfaphenazole, 10 µL of 10 mM quinidine, and 8 µL of DMSO were mixed. For specific inhibitors of CYP3A4, CYP2B6, CYP2C8, and CYP2C19: 8 µL of DMSO stock solution was added to 12 µL of ACN.
A 4× diluted NADPH solution was prepared by dissolving 66.7 mg of NADPH in 10 mL of 0.1 M K-buffer (pH 7.4). […]
(In general: Microsomes from liver hold many membrane-bound enzymes, among them those of drug oxidation.)

T1 sequence (P33261 whole entry): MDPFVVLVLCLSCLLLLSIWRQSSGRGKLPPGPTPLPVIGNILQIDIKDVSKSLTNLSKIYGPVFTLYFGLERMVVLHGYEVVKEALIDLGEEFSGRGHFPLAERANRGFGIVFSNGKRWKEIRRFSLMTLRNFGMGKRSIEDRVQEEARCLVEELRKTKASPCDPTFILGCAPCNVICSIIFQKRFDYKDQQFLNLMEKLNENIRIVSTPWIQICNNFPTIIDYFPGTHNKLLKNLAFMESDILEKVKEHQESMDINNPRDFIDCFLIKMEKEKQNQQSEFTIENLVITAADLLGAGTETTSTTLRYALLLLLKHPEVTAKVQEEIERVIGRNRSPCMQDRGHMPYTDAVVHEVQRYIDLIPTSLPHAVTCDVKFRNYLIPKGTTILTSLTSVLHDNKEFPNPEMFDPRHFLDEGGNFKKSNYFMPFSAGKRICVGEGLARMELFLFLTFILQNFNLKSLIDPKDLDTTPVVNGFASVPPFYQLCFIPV

For orientation: inhibition means the share of the control response that was lost under treatment. As to `CC1(n2c(-c3ccc(NC(=O)C(=O)Nc4ccc(N5CCC6(CCOC6)CC5)cc4)cc3)cc3cc(F)c(-c4nnn[nH]4)cc32)CCC1` [Example 68], the inhibition at 45 min, 10 µM is 13.5%.
As to `O=C(Nc1ccc(-c2cc3cc(F)c(-c4nnn[nH]4)cc3n2C2CCC2)cc1)C(=O)Nc1ccc(N2CCC(CO)CC2)cc1` [Example 23], the inhibition at 45 min, 10 µM worked out at 1.78%.
Consider `O=C(Nc1ccc(-c2cc3cc(F)c(-c4nnn[nH]4)cc3n2C2CCC2)cc1)C(=O)Nc1ccc(N2CCC3(CCOC3)CC2)cc1` [Example 67], for which the inhibition at 45 min, 10 µM stood at 13.9%.

These data come from EP4741383A1, “COMPOUND AND USE THEREOF AS ANTI-CANCER DRUG” (Tyligand Bioscience (Shanghai) Limited, priority 2023, dated 2025).
